Source: patent US9521847B2, “Synergistic weed control from applications of pyridine carboxylic acid herbicides and synthetic auxin herbicides and/or auxin transport inhibitors” (Dow AgroSciences LLC, priority 2014, dated 2016)
Values joined by “and” are separate entries in the source; they are usually repeats but may differ in a detail not shown here. Equal values may be shown once. Read-outs that look alike come from different tables or passages of the source.

Key:
[1] = system: winter rape (BRSNW, Brassica napus); test: Greenhouse postemergence trial, % visual injury; format: in vivo; settings: for % visual injury, Obs: BRSNW
[2] = system: velvetleaf (Abutilon theophrasti, ABUTH); test: Greenhouse postemergence trial, % visual injury; format: in vivo; settings: Abutilon theophrasti, post-emergence, read-out: % visual injury, Obs; for pest or weed control at 5 g/ha / pest or weed control at 10 g/ha: ABUTH
[3] = system: sunflower (Helianthus annus, HELAN); test: Greenhouse postemergence trial, % visual injury; format: in vivo; settings: HELAN
[4] = system: wild buckwheat (Polygonum convolvulus, POLCO); test: Greenhouse postemergence trial, % visual injury; format: in vivo; settings: for % visual injury, Obs: POLCO
[5] = system: turnip (Brassica rapa, BRSRR); test: Greenhouse postemergence trial, % visual injury; format: in vivo; settings: for % visual injury, Obs: BRSRR
[6] = system: Chinese kale (Brassica alboglabra, BRSAG); test: Greenhouse postemergence trial, % visual injury; format: in vivo; settings: BRSAG
[7] = system: rutabaga (Brassica napus var. napobrassica, BRSNA); test: Greenhouse postemergence trial, % visual injury; format: in vivo; settings: BRSNA; naptalam 140 g ai/ha
[8] = system: Roundup Ready rape (Brassica napus, BRSNN-RR); test: Greenhouse postemergence trial, % visual injury; format: in vivo
[9] = system: Canadian thistle (CIRAR, Cirsium arvense); test: Greenhouse postemergence trial, % visual injury; settings: CIRAR; naptalam 140 g ai/ha;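 further: plants sprayed at second to third true leaf stage, injury scored visually 20-22 d later against solvent-blank sprayed controls, 0 meaning no injury and 100 complete kill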
[10] = system: wild pansy (Viola tricolor, VIOTR); test: Greenhouse postemergence trial, % visual injury; settings: for % visual injury, Obs: VIOTR
[11] = system: winter wheat (TRZAW); test: Greenhouse postemergence trial, crop phytotoxicity (% visual injury); settings: TRZAW
[12] = system: maize (ZEAMX); test: as above; settings: ZEAMX
[13] = system: common rice (ORYSA); test: as above; settings: ORYSA
[14] = system: pigweed (AMARE, Amaranthus retroflexus); test: Greenhouse postemergence trial, % visual injury; format: in vivo; settings: AMARE
[15] = system: common lambsquarters (CHEAL, Chenopodium album L.); test: Greenhouse postemergence trial, % visual injury; format: in vivo; settings: CHEAL
[16] = system: kochia (KCHSC, Kochia scoparia); test: Greenhouse postemergence trial, % visual injury; format: in vivo; settings: for % visual injury, Obs.: Table 61
Method: Following the protocol in Example 1, compound 1 and compound 2 were combined with 2,4 D EHE (EC) and applied to kochia (KCHSC, Kochia scoparia) and the phytotoxicity of the herbicidal compositions was measured.
Following the protocol in Example 1, compound 1 (EC) and Compound 2 (SC) were combined with diflufenzopyr and applied to kochia (Kochia scoparia, KCHSC) and the phytotoxicity of the herbicidal composition was measured.

[17] = system: nutsedge (Cyperus esculentus, CYPES); test: Greenhouse postemergence trial, % visual injury; format: in vivo; settings: CYPES
[18] = system: grain sorghum (Sorghum vulgare, SORVU); test: Greenhouse postemergence trial, % visual injury; format: in vivo; settings: SORVU
[19] = system: black mustard (Brassica nigra, BRSNI); test: Greenhouse postemergence trial, % visual injury; format: in vivo
[20] = system: wild radish (Raphanus raphanistrum, RAPRA); test: Greenhouse postemergence trial, % visual injury; format: in vivo
[21] = system: Russian thistle (Salsola iberica, SASKR); test: Greenhouse postemergence trial, % visual injury; format: in vivo; settings: SASKR
[22] = system: wild mustard (Sinapis arvensis, SINAR); test: Greenhouse postemergence trial, % visual injury; format: in vivo; settings: for % visual injury, Obs: SINAR
[23] = system: Indian hedge mustard (Sisymbrium orientale, SSYOR); test: Greenhouse postemergence trial, % visual injury; format: in vivo
[24] = system: blackgrass (Alopecurus myosuroides, ALOMY); test: Greenhouse postemergence trial, % visual injury; format: in vivo
[25] = system: wild oat (Avena fatua, VEFA); test: Greenhouse postemergence trial, % visual injury; format: in vivo; settings: AVEFA
[26] = system: large crabgrass (Digitaria sanguinalis, DIGSA); test: Greenhouse postemergence trial, % visual injury; format: in vivo; settings: DIGSA
[27] = system: winter wheat (TRZAW); settings: winter wheat (Triticum aestivum), in vivo
[28] = system: maize (ZEAMX); settings: maize (Zea mays), in vivo
[29] = system: spring rape (Brassica napus, BRSNN); test: Greenhouse postemergence trial, % visual injury; settings: for % visual injury, Obs: BRSNN
[30] = system: poinsettia (Euphorbia heterophylla, EPHHL); test: Greenhouse postemergence trial, % visual injury; settings: Euphorbia heterophylla, post-emergence
[31] = system: ivyleaf morningglory (Ipomoea hederacea, IPOHE); test: Greenhouse postemergence trial, % visual injury; settings: Ipomoea, post-emergence
[32] = system: brown mustard (Brassica juncea, BRSJU); test: Greenhouse postemergence trial, % visual injury; format: in vivo; settings: BRSJU; 2,3,5-TIBA 140 g ai/ha
[33] = Brassica napus, post-emergence, read-out: % visual injury, Obs

O=C(O)c1ccccc1C(=O)Nc1cccc2ccccc12 [naptalam, reference compound]
% visual injury, Obs ([1]; naptalam 140 g ai/ha): 0%
pest or weed control at 140 g/ha [2]: 0%
% visual injury, Obs ([3]; naptalam 140 g ai/ha): 0%
% visual injury, Obs ([4]; naptalam 140 g ai/ha): 0%
% visual injury, Obs ([5]; naptalam 140 g ai/ha): 0%
% visual injury, Obs ([6]; naptalam 140 g ai/ha): 0%
% visual injury, Obs [7]: 0%
% visual injury, Obs ([8]; naptalam 140 g ai/ha): 0%
% visual injury, Obs [9]: 0%
% visual injury, Obs ([10]; naptalam 140 g ai/ha): 0%
% visual injury, Obs ([11]; naptalam 140 g ai/ha): 0%
% visual injury, Obs ([12]; naptalam 140 g ai/ha): 0%
% visual injury, Obs ([13]; naptalam 140 g ai/ha): 0%

Nc1c(F)c(-c2ccc3cc[nH]c3c2F)nc(C(=O)OCc2ccccc2)c1Cl [compound 2]
% visual injury, Obs ([14]; 5 g ae/ha): 88% and 65%
% visual injury, Obs ([14]; 10 g ae/ha): 100% and 60%
% visual injury, Obs ([14]; compound 2 (EC) 5 g ae/ha): 88%
% visual injury, Obs ([14]; compound 2 (EC) 10 g ae/ha): 100%
% visual injury, Obs ([1]; 5 g ae/ha): 30%
% visual injury, Obs ([1]; 10 g ae/ha): 50%
% visual injury (Obs) ([1]; compound 2 SC 5 g ae/ha): 50%
% visual injury (Obs) ([1]; compound 2 SC 10 g ae/ha): 50%
% visual injury, Obs ([15]; 5 g ae/ha): 88%
% visual injury, Obs ([15]; 10 g ae/ha): 99%
% visual injury Obs ([16]; 8.75 g ae/ha alone, 20-22 d): 55%
pest or weed control at 5 g/ha ([16]; Bassia scoparia, post-emergence, KCHSC, 5 g ae/ha, read-out: % visual injury, Obs): 30%
pest or weed control at 10 g/ha ([16]; Bassia scoparia, post-emergence, KCHSC, 10 g ae/ha, read-out: % visual injury, Obs): 75%
% visual injury, Obs. ([16]; KCHSC, compound 2 (SC) 8.75 g ae/ha): 84%
% visual injury, Obs. ([16]; KCHSC, compound 2 (SC) 17.5 g ae/ha): 86%
pest or weed control at 5 g/ha ([2]; 5 g ae/ha): 78%
pest or weed control at 10 g/ha ([2]; 10 g ae/ha): 95%
pest or weed control at 5 g/ha ([2]; compound 2 (EC) 5 g ae/ha): 78%
pest or weed control at 10 g/ha ([2]; compound 2 (EC) 10 g ae/ha): 95%
% visual injury, Obs ([17]; 5 g ae/ha): 5%
% visual injury, Obs ([17]; 10 g ae/ha): 10%
% visual injury, Obs ([17]; compound 2 (EC) 5 g ae/ha): 5%
% visual injury, Obs ([17]; compound 2 (EC) 10 g ae/ha): 10%
% visual injury (Obs) ([4]; compound 2 SC 5 g ae/ha): 30%
% visual injury (Obs) ([4]; compound 2 SC 10 g ae/ha): 50%
% visual injury, Obs ([18]; 5 g ae/ha): 38%
% visual injury, Obs ([18]; 10 g ae/ha): 63%
% visual injury (Obs) ([19]; compound 2 SC 2.5 g ae/ha): 30%
% visual injury (Obs) ([19]; compound 2 SC 5 g ae/ha): 70%
% visual injury (Obs) ([5]; compound 2 SC 2.5 g ae/ha): 23%
% visual injury (Obs) ([5]; compound 2 SC 5 g ae/ha): 67%
% visual injury (Obs) ([20]; compound 2 SC 2.5 g ae/ha): 17%
% visual injury (Obs) ([20]; compound 2 SC 5 g ae/ha): 25%
% visual injury, Obs ([21]; 5 g ae/ha): 10%
% visual injury, Obs ([21]; 10 g ae/ha): 10%
% visual injury, Obs ([22]; 5 g ae/ha): 95%
% visual injury, Obs ([22]; 10 g ae/ha): 100%
% visual injury (Obs) ([22]; compound 2 SC 2.5 g ae/ha): 87%
% visual injury (Obs) ([22]; compound 2 SC 5 g ae/ha): 100% and 94%
% visual injury (Obs) ([22]; compound 2 SC 10 g ae/ha): 100%
% visual injury (Obs) ([23]; compound 2 SC 2.5 g ae/ha): 20%
% visual injury (Obs) ([23]; compound 2 SC 5 g ae/ha): 40%
% visual injury, Obs ([24]; 5 g ae/ha): 0%
% visual injury, Obs ([24]; 10 g ae/ha): 0%
% visual injury, Obs ([25]; 5 g ae/ha): 0%
% visual injury, Obs ([25]; 10 g ae/ha): 0%
% visual injury, Obs ([26]; compound 2 (EC) 5 g ae/ha): 28%
% visual injury, Obs ([26]; compound 2 (EC) 10 g ae/ha): 53%
pest or weed control at 5 g/ha ([26]; Digitaria sanguinalis, post-emergence, 5 g ae/ha, read-out: % visual injury, Obs): 28%
pest or weed control at 10 g/ha ([26]; Digitaria sanguinalis, post-emergence, 10 g ae/ha, read-out: % visual injury, Obs): 53%
% visual injury, Obs [27]: 3%
% visual injury, Obs [28]: 3%
% visual injury, Obs ([29]; compound 2 (EC) 5 g ae/ha): 30%
% visual injury, Obs ([29]; compound 2 (EC) 10 g ae/ha): 55%
plant injury at 5 g/ha [29, 33]: 30%
plant injury at 10 g/ha [29, 33]: 55%
pest or weed control at 5 g/ha ([30]; read-out: % visual injury, Obs, EPHHL, 5 g ae/ha): 35%
pest or weed control at 10 g/ha ([30]; read-out: % visual injury, Obs, EPHHL, 10 g ae/ha): 75%
pest or weed control at 5 g/ha ([30]; read-out: % visual injury, Obs, EPHHL, compound 2 (EC) 5 g ae/ha): 35%
pest or weed control at 10 g/ha ([30]; read-out: % visual injury, Obs, EPHHL, compound 2 (EC) 10 g ae/ha): 75%
% visual injury, Obs ([10]; 5 g ae/ha): 15%
% visual injury, Obs ([10]; 10 g ae/ha): 40%
% visual injury, Obs ([10]; compound 2 (EC) 5 g ae/ha): 15%
% visual injury, Obs ([10]; compound 2 (EC) 10 g ae/ha): 40%
% visual injury (Obs) ([10]; compound 2 SC 2.5 g ae/ha): 13%
% visual injury (Obs) ([10]; compound 2 SC 5 g ae/ha): 23%
pest or weed control at 5 g/ha ([31]; read-out: % visual injury, Obs, IPOHE, 5 g ae/ha): 10%
pest or weed control at 10 g/ha ([31]; read-out: % visual injury, Obs, IPOHE, 10 g ae/ha): 20%
pest or weed control at 5 g/ha ([31]; read-out: % visual injury, Obs, IPOHE, compound 2 (EC) 5 g ae/ha): 10%
pest or weed control at 10 g/ha ([31]; read-out: % visual injury, Obs, IPOHE, compound 2 (EC) 10 g ae/ha): 20%

O=C(O)c1cc(I)cc(I)c1I [2,3,5-TIBA, 2,3,5-triiodobenzoic acid, reference compound]
% visual injury, Obs ([1]; 2,3,5-TIBA 140 g ai/ha): 0%
pest or weed control at 140 g/ha [2]: 0%
% visual injury, Obs ([3]; 2,3,5-TIBA 140 g ai/ha): 0%
% visual injury, Obs ([4]; 2,3,5-TIBA 140 g ai/ha): 0%
% visual injury, Obs ([5]; 2,3,5-TIBA 140 g ai/ha): 20%
% visual injury, Obs ([6]; 2,3,5-TIBA 140 g ai/ha): 0%
% visual injury, Obs [32]: 10%
% visual injury, Obs ([8]; 2,3,5-TIBA 140 g ai/ha): 0%
plant injury at 140 g/ha [29, 33]: 5%
% visual injury, Obs ([10]; 2,3,5-TIBA 140 g ai/ha): 0%
% visual injury, Obs ([11]; 2,3,5-TIBA 140 g ai/ha): 0%
% visual injury, Obs ([12]; 2,3,5-TIBA 140 g ai/ha): 0%
% visual injury, Obs ([13]; 2,3,5-TIBA 140 g ai/ha): 0%
